Source: patent publication US20050074485A1, “Anti-inflammatory/anti-microbial peptides for use in dialysis” (priority 2003, published 2005)
“Also recorded” adds a separate entry of the source. Where a SMILES comes first, the peptide text is derived from it. Bridges are numbered along the chain shown (N, C = ends). Roman numbers before positions name the chains, in order. Where no end group is shown, it is not given here. [ ]: non-standard residue; d: D form.

How the values were obtained:
[1] = cited from earlier work; for antipyretic potency relative to α-MSH (11-13): centrally administered, rabbit, Deeter et al. 1989
[2] = in vivo
[3] = in vivo; remark: listed apart in the source
[4] = system: C. albicans (clinical isolate); assay: C. albicans viability by colony forming units; assay type: cell-based, Candida albicans; conditions: 10^−6 M
Description: C. albicans (clinical isolate) were obtained from the collection of the Department of Microbiology, Ospedale Maggiore di Milano. C. albicans were maintained on Sabouraud's agar slants and periodically transferred to Sabouraud's agar plates and incubated for 48 hours at 28° C. To prepare stationary growth phase yeast, a colony was taken from the agar plate and transferred into 30 ml Sabouraud-dextrose broth and incubated for 72 hours at 32° C. Cells were centrifuged at 100×g for 10 minutes and the pellet was washed twice with distilled water. Cells were counted and suspended in Hank's balanced salt solution (“HBSS”) to the desired concentration. […] C. albicans (I×10^6/ml in HBSS) was incubated in the presence or absence of α-MSH [1-13], KPV, (SEQ. ID NO.1) or the (“KPV dimer”) at concentrations in the range of 10^−15 to 10^−4M for 2 hours at 37° C. Cells were then washed in cold distilled water and diluted with HBSS to a concentration of 100 organisms/ml. One ml aliquots were dispensed on blood agar plates and incubated for 48 hours at 37° C. Organism viability was estimated from the number of colonies formed.
Fluconazole is a well established antifungal agent. […] The peptides and fluconazole were tested in concentrations of 10^−6 M. There were at least six replicates for each concentration of peptide.

HIV transcription = conditions: 10^−5M; PMA (1 ng/mL) stimulated UI cells, 24 h
Description: Total RNA was extracted by the guanidine thiocyanate phenol method using an RNA isolation kit (Tripure, Boehringer Mannheim, Indianapolis, Ind.), following the manufacturer's instructions. Ten ng of total RNA were separated by 0.8% agarose/formaldehyde gel electrophoresis and transferred onto nylon membrane. The filters were baked and hybridized for 18 hr with ^32P-labeled HIV-full length probe (kind gift of L. Turchetto and E. Vicenzi, S. Raffaele Hospital, Milan, Italy). The radiolabeling reaction was performed using a DNA labeling kit (Ready-to-go, Pharmacia Biotech, San Francisco, Calif.). Filters were washed and exposed to X-ray film for 5 days. The labeled probe was removed by washing at 80° C. in 0.1×SSC containing 0.1% sodium dodecyl sulphate and then rehybridized with (^32P-labeled glyceraldehyde-3-phosphate dehydrogenase) (GAPDH) cDNA probe. Densitometric analysis was performed using ImageMaster VDS 3.0 software (Pharmacia Biotech) and results were expressed as density units.

[5] = system: Staphylococcus aureus (ATCC29213); assay: S. aureus viability by colony forming units; assay type: cell-based; conditions: 10^−15 to 10^−4M, 2 hours at 37° C.
Description: Staphylococcus aureus (ATCC29213) was obtained from the collection of the Department of Microbiology, Ospedale Maggiore di Milano. S. aureus (1×10^6/ml in HBSS) was incubated in the presence or absence of α-MSH [1-13] (SEQ ID NO: 6), α-MSH [11-13] (SEQ. ID NO. 1) or the KPV dimer (SEQ ID NO: 4) at concentrations in the range of 10^−15 to 10^−4M for 2 hours at 37° C. S. aureus were then washed in cold distilled water and diluted with HBSS to a concentration of 100 organisms/ml. One ml aliquots were dispensed on blood agar plates and incubated for 24 hours at 37° C. Organism viability was estimated from the number of colony forming units.

S. aureus = assay: Urokinase-induced growth enhancement of S. aureus; assay type: cell-based, Staphylococcus aureus; conditions: 10^−6 M, recombinant human urokinase 500 U, four hours at 37° C.
Description: In this experiment, the influence of α-MSH on urokinase-induced growth-enhancement is determined. […] (SEQ. ID NO.1) at 10^−6 M. Appropriate dilutions of S. aureus were dispensed on agar plates and colonies counted after 24 hours incubation at 37° C.

[6] = system: Enterococcus faecalis (MDR) (ATCC 51299); assay: Broth dilution turbidity test of growth inhibition; assay type: cell-based
Description: (§1) These organisms were subcultured onto blood agar plates and incubated for 16-24 hours at 35±2° C. An inoculated needle or loop was touched to each of four or five well isolated colonies of the same morphological type, and the inoculum inoculated into 5 mL of MHB.
(§2) The broth cultures were then allowed to incubate at 35±2° C. until turbidity appeared (usually 2 to 5 hours). […] This turbidity is half the density of a McFarland number one standard and is often referred to as McFarland 0.5 standard (approx. 1.5×10^8 CFU/mL). This turbidity standard was agitated on a vortex mixer immediately before use. Sealed tubes were stored in the dark at room temperature and replaced if the inocula are shown (by count) to be aberrant.
(§3) The broth culture was further diluted to 1:200 in MHB broth (to obtain a final concentration of 10^5 to 10^6 CFU/mL). To determine the initial concentration of the organism in the above solution, serial dilutions were performed 1:10 in MHB four times to achieve a final dilution of 10^−4. Aliquots 1.0 mL from each of the dilutions were placed in duplicate into sterile petri dishes. Approximately 15 to 20 mL of tempered (45±2° C.) MCTA agar media was added. The plates were incubated overnight at 35±2° C. for 16-20 hours. Following the incubation period, the colonies were counted.
(§4) These dilutions were developed according to the procedure: for each drug substance label 9 flasks (10 ml Volumetric) 1 through 9; for each sample add 3 mL of deionized (“DI”) water to a 10 mL volumetric flask; then transfer the amount of anti-microbial and anti-inflammatory peptides as specified below in Table 2; record the actual amount transferred in the laboratory notebook; and add the remaining amount of DI water to bring up to volume of 10 mL.
(§5) 100 μL of the anti-microbial and anti-inflammatory peptide solution from each of the flasks was then added to the correspondingly labeled well; to well number 10 add 100 μL sterile DI Water; and to all ten wells add 100 μL of inoculum created previously.
(§6) The procedure was repeated for each of the seven microorganisms tested.
(§7) Each well was tested for turbidity, as an indicator of growth.

[7] = system: Streptococcus pyogenes Group A (ATCC 19615); assay: Broth dilution turbidity test of growth inhibition; assay type: cell-based
Description: as §1, §2, §3, §4, §5, §6, §7

[8] = system: HIV-1 infected promonocytic UI cell line; assay: HIV-p24 release from TNF-α stimulated UI cells (ELISA); assay type: cell-based; conditions: 48 hr
[9] = system: Staphylococcus epidermidis (ATCC 12228); assay: Broth dilution turbidity test of growth inhibition; assay type: cell-based
Description: The following microorganisms were used in the Example: Candida albicans (ATCC 10231); Enterococcus faecalis (MDR) (ATCC 51299); Escherichia coli (ATCC 11229); Pseudomonas aeruginosa (ATCC 9027); Staphylococcus aureus (ATCC 6538); Staphylococcus epidermidis (ATCC 12228); and Streptococcus pyogenes Group A (ATCC 19615). These organisms were subcultured onto blood agar plates and incubated for 16-24 hours at 35±2° C. An inoculated needle or loop was touched to each of four or five well isolated colonies of the same morphological type, and the inoculum inoculated into 5 mL of MHB.
as §2
The broth culture was further diluted to 1:200 in MHB broth (to obtain a final concentration of 10^5 to 10^6 CFU/mL). To determine the initial concentration of the organism in the above solution, serial dilutions were performed 1:10 in MHB four times to achieve a final dilution of 10^−4. […] Following the incubation period, the colonies were counted. […]

[10] = system: Candida albicans (ATCC 10231); assay: Broth dilution turbidity test of growth inhibition; assay type: cell-based; conditions: turbidity after 16-20 hours at 35±2° C.
Description: as §1, §2, §3, §4, §5, §6, §7

[11] = Hiltz et al. 1991; cited from earlier work
[12] = turbidity after 16-20 hours at 35±2° C.

For “8-13 sequence: α-MSH fragment 8-13 (RWGKPV; ends and bridges not checked; UniProt P01189 145-150, looked up, fragment)”, the “antipyretic potency relative to α-MSH (11-13)” value [1] is listed as “greater than that of the 11-13 sequence”.

For “9-13 sequence: α-MSH fragment 9-13 (WGKPV; ends and bridges not checked; UniProt P01189 146-150, looked up, fragment)”, the “antipyretic potency relative to α-MSH (11-13)” value [1] is listed as “almost devoid of activity”.

In the case of “10-13 sequence: α-MSH fragment formed by addition of glycine to α-MSH (11-13) (GKPV; ends and bridges not checked; UniProt P01189 147-150, looked up, fragment)”, the “antipyretic potency relative to α-MSH (11-13)” value [1] is listed as “slightly decreased potency”.

In the case of CC(=O)N[C@@H](CSSC[C@H](NC(C)=O)C(=O)N[C@@H](CCCCN)C(=O)N1CCC[C@H]1C(=O)N[C@H](C(N)=O)C(C)C)C(=O)N[C@@H](CCCCN)C(=O)N1CCC[C@H]1C(=O)N[C@H](C(N)=O)C(C)C [KPV dimer, Val-Pro-Lys-AcCys-s-s-CysAc-Lys-Pro-Val] (I: Ac-CKPV-NH2 / II: Ac-CKPV-NH2; disulfide I:1-II:1), the negative side effects [2] is reported as “without negative side effects” and the safety and tolerability [3] is reported as “remarkable safety of and tolerability”.

In the case of “ACTH (1-39): adrenocorticotropic hormone (SYSMEHFRWGKPVGKKRRPVKVYPAKEDDEASEAFPLEF; listed as Homo sapiens) [reference compound]”, the “reduction of C. albicans viability in comparison with fluconazole” value (shortened to “reduction of C. albicans viability”) [4] is reported as “did not reduce C. albicans viability”.

In the case of “ACTH fragment (18-39): ACTH fragment (18-39) (PVKVYPAKEDDEASEAFPLEF; listed as Homo sapiens) [reference compound]”, the “reduction of C. albicans viability” value [4] is reported as “did not reduce C. albicans viability”.

With “HFRWGKPV (listed as Homo sapiens) [α-MSH [6-13]]” the “reduction of C. albicans viability” value [4] was “most effective”.

In the case of Lysine-Proline-Valine [KPV], the “reduction of spliced and unspliced HIV-1 RNA” value (HIV transcription) is reported as “approximately 50%”, the “S. aureus colony formation (CFU)” value [5] is reported as “inhibited S. aureus colony formation” and the “urokinase-enhanced S. aureus colony formation” value (S. aureus) is reported as “significantly inhibited the enhancing effect of urokinase; also recorded: significantly inhibited this urokinase-enhancing effect”. The “effectiveness against the organism (in words)” value (from here on “effectiveness”) [6] was “effective”, the “effectiveness” value [7] was “effective” and the “reduction of C. albicans viability” value [4] was “most effective”.

With “Met-Glu-His-Phe-Arg-Trp-Gly (EHFRWG; listed as Homo sapiens) [α-MSH [4-10], reference compound]” the “inhibition of C. albicans CFU” value [4] was “approximately 50%”.

With SYSMEHFRWGKPV [α-MSH [1-13]] the “S. aureus colony formation (CFU)” value [5] was “inhibited S. aureus colony formation”, the “urokinase-enhanced S. aureus colony formation” value (S. aureus) was “significantly inhibited this urokinase-enhancing effect” and the “urokinase-enhanced S. aureus colony formation” value (S. aureus; listed as α-MSH) was “significantly inhibited the enhancing effect of urokinase”. For the same compound, the “inhibition of p24 release” value ([8]; 10^−5 M, TNF-α (10 ng/mL) stimulated UI cells) was 52.7%, the “p24 release from TNF-α stimulated UI cells (in words)” value ([8]; 10^−13 to 10^−4 M) was “significantly inhibited p24 release” and the “reduction of C. albicans viability” value [4] was “most effective”.

For “SYSMEHdFRWGKPV (SYSMEH[dF]RWGKPV; ends and bridges not checked) [Phe7]”, the “effectiveness” value [9] was “very effective”, the “minimal effective concentration that completely inhibited growth” value [9, 12] was 10^−4 M and the “effectiveness” value [6] was “effective”. For the same compound, the “minimal effective concentration that completely inhibited growth” value [6, 12] was 10^−3 M, the “effectiveness” value [7] was “effective” and the “minimal effective concentration that completely inhibited growth” value [7, 12] was 10^−4 M. For the same compound, the “minimal effective concentration that completely inhibited growth” value [10] was 10^−3 M.

For [Nle4 dPhe7]α-MSH [NDP], the “potency in reducing fever relative to the parent peptide” value ([1]; Holdeman and Lipton 1985) is listed as “approximately ten times more potent than the parent peptide” and the “minimal effective concentration that completely inhibited growth” value [10] is listed as 10^−3 M.

In the case of [dK11] α-MSH (11-13), the “anti-inflammatory potency relative to L-form tripeptide α-MSH 11-13” value [11] is listed as “same general potency as the L-form”.
